“Also recorded” adds a separate entry of the source.
Experiments:
[1] = tested on: Hep55.1c mouse model of hepatocellular carcinoma; assay: Hep55.1c tumor fragment transplantation model, survival; type: in vivo, C57BL/6N mice; settings: alive on day 94 after tumor fragment transplantation; 41-A weekly oral, anti-PD-1 250 μg i.p. 8 doses
Protocol: Female C57BL/6N mice (Jackson Laboratories) were injected intra hepatically with 5×10^5 Hep55.1c tumor cell line together with Matrigel (Matrigel Basement Membrane Matrix, Corning Cat #354234) in a total volume of 20 μl (10 μl cell suspension plus 10 μl Martigel). After 3 weeks, animals were sacrificed and tumors excised from the liver. Excised tumors were cut into 1×1 mm^3 pieces and implanted into the liver of female C57BL/6N mice. Scout animals were sacrificed to determine the time point of treatment start at about 80 mm^3 tumor volume. […] 41-A was given weekly, while anti-PD-1 antibody treatment started one day after 41-A treatment and was continued every three to four days for 8 doses in total. Treatment with both agents was stopped after the last anti-PD-1 administration.

[2] = tested on: PD-L1 expression on tumor cells; assay: PD-L1 expression on tumor cells of iAST mice by flow cytometry; type: in vivo, mouse; settings: day 12 after treatment start
Protocol: Tumors from iAST mice were treated as described in FIG. 1. […] For flow cytometry, tumors were excised and single cell suspensions obtained by mechanical processing and enzymatic digestion (DNAse 0.01%, Collagenase IV 1 mg/ml). Staining procedures started with Fc receptor blocking using 2.4G2 antibody clone (1:200 dilution, BD Bioscience), and the following antibodies (clones) were used to analyzed leukocyte infiltrate: CD45-FITC (30-F11, BioLegend) and CD11b-BUV737 (M1/70, BD Bioscience). Samples were acquired using a LSR Fortessa machine (BD Bioscience) and analyzed by FlowJo version 10 (Treestar).

[3] = tested on: Hep55.1c tumor bearing mice; assay: Transplanted Hep55.1c mouse model of hepatocellular carcinoma, tumor volume by μCT; type: in vivo, C57BL/6N mice; settings: Hep55.1c intrahepatic tumors; 41-A 10 mg/kg weekly oral; anti-CD40 4 mg/kg single dose; vs vehicle
Protocol: Female C57BL/6N mice (Jackson Laboratories) were injected intra hepatically with 5×10^5 Hep55.1c tumor cell line together with Matrigel (Matrigel Basement Membrane Matrix, Corning Cat #354234) in a total volume of […] (10 μl cell suspension plus 10 μl Martigel). Tumor volume was monitored weekly using μCT (TomoScope Synergy Twin, CT Imaging GmbH) upon a single intravenous administration of contrasting agent Exitron 6000 (Viscovert). Imaging data were reconstructed by TomoScope software and analyzed using Osirix software. […] To compare to another agonistic, immune stimulating agent, a single dose of anti-CD40 antibody (4 mg/kg; clone FGK.45, BioXCell) was given. Data depicted are means±SEM for a minimum of n=9 animals per group.

[4] = tested on: iAST mouse model of hepatocellular carcinoma; assay: iAST mouse model of hepatocellular carcinoma, tumor burden; settings: iAST mice, day 12 after treatment start; 41-A 10 mg/kg once a week oral, Sorafenib 90 mg/kg daily
Protocol: Per group n=10 were analyzed by One-way ANOVA and Tukey correction shown as individual dots with means±SEM using GraphPad Prism software version 6.

CCCN(C)C(=O)n1c(=O)n(Cc2ccc(Cl)cc2)c2nc([S@](=N)(=O)CC)nc(N)c21 [Example 41-A, 6-Amino-9-[(4-chlorophenyl)methyl]-2-[S(R)-ethylsulfonimidoyl]-N-methyl-8-oxo-N-propyl-purine-7-carboxamide]
survival of mice [1]: 5/10 | PD-L1 expression on tumor cells [2]: induced PD-L1 expression on tumor cells | PD-L1 expression on tumor cells ([2]; listed as compound 41-A): induces PD-L1 expression on tumor cells | tumor growth (tumor volume) [3]: tumor stasis; also recorded: inhibition of tumor growth | Examination of the liver for superficial tumor nodules (tumor nodule free) [4]: 0/10 tumor nodule free

From US20200268762A1, “7-SUBSTITUTED SULFONIMIDOYLPURINONE COMPOUNDS AND DERIVATIVES FOR THE TREATMENT AND PROPHYLAXIS OF LIVER CANCER” (Hoffmann-La Roche Inc., priority 2019, published 2020)
